The values that follow come from patent US10570149B2, “Tricyclic heterocylic derivatives” (MERCK PATENT GMBH, priority 2016, dated 2020).

Where only a bound is given, the exact number is not on record here.

As a reminder, the IC50 is the point on the concentration scale where inhibition reaches its midpoint.

In experiment [1] the target is T1, ATR/ATRIP (Homo sapiens, UniProt Q13535).
T1 construct: human ATR, full length, GenBank ID: NM_001184.3; p53: Sf21 insect cells
The experiment in a line: ATR/ATRIP kinase assay (TR-FRET, p53 phosphorylation). Format: biochemical. Conditions: Table 1, class symbols; read-out: ATR-ATRIP IC50. For orientation: In TR-FRET formats the signal depends on donor and acceptor labels being close together.

The test system of experiment [2] is phosphorylation of Chk1 (Ser 345) in HT29 colon adenocarcinoma cells. Briefly: pCHK1 cellular assay. Type of experiment: cell-based. Conditions: Homo sapiens, HT-29, Table 1, class symbols, hydroxyurea. The source says: Chk1 kinase acts downstream of ATR and has a key role in DNA damage checkpoint control. Activation of Chk1 involves phosphorylation of Ser317 and Ser345 (regarded as the preferential target for phosphorylation/activation by ATR) and occurs in response to blocked DNA replication and certain forms of genotoxic stress. Phosphorylation at Ser 345 serves to localize Chk1 to the nucleus following checkpoint activation.
This assay measures a decrease in phosphorylation of Chk1 (Ser 345) in HT29 colon adenocarcinoma cells following treatment with compound and hydroxyurea (which promotes fork stalling because of dNTP depletion) and using an immunocytochemical procedure and high content imaging.
For the assay HT29 cells are plated in culture medium (DMEM high Glucose (no phenol red), 2 mM Glutamax, 1 mM Pyruvate, 10% FCS into Greiner 384 well plates, black, μclear #781090 (2500 cells/well/30 μl) and incubated for at least 20 hours at 37° C., 10% CO2 and 90% rH. Diluted test compounds (1 nM-30 μM final) and hydroxyurea (3 mM final) are added simultaneously and cells are incubated for 4 h at 37° C. After fixation/prmeabilisation with 100% MeOH (−20° C. cold) and permeabilisation with 0.2% Triton X-100 a complete immunocytochemical procedure is performed using a specific anti-pChk1 antibody (Cell Signaling, #2348BF) and fluorescently labelled secondary antibody (Alexa Fluor® 488 goat anti-rabbit F(ab′)2 fragment, Invitrogen A11070) and parallel nuclear staining for cell counting.
The nuclear localised pChk1 signal is detected on an ImageXpress Ultra confocal high content reader and reported as % positive cells (nuclei).

T1 sequence (Q13535 whole entry): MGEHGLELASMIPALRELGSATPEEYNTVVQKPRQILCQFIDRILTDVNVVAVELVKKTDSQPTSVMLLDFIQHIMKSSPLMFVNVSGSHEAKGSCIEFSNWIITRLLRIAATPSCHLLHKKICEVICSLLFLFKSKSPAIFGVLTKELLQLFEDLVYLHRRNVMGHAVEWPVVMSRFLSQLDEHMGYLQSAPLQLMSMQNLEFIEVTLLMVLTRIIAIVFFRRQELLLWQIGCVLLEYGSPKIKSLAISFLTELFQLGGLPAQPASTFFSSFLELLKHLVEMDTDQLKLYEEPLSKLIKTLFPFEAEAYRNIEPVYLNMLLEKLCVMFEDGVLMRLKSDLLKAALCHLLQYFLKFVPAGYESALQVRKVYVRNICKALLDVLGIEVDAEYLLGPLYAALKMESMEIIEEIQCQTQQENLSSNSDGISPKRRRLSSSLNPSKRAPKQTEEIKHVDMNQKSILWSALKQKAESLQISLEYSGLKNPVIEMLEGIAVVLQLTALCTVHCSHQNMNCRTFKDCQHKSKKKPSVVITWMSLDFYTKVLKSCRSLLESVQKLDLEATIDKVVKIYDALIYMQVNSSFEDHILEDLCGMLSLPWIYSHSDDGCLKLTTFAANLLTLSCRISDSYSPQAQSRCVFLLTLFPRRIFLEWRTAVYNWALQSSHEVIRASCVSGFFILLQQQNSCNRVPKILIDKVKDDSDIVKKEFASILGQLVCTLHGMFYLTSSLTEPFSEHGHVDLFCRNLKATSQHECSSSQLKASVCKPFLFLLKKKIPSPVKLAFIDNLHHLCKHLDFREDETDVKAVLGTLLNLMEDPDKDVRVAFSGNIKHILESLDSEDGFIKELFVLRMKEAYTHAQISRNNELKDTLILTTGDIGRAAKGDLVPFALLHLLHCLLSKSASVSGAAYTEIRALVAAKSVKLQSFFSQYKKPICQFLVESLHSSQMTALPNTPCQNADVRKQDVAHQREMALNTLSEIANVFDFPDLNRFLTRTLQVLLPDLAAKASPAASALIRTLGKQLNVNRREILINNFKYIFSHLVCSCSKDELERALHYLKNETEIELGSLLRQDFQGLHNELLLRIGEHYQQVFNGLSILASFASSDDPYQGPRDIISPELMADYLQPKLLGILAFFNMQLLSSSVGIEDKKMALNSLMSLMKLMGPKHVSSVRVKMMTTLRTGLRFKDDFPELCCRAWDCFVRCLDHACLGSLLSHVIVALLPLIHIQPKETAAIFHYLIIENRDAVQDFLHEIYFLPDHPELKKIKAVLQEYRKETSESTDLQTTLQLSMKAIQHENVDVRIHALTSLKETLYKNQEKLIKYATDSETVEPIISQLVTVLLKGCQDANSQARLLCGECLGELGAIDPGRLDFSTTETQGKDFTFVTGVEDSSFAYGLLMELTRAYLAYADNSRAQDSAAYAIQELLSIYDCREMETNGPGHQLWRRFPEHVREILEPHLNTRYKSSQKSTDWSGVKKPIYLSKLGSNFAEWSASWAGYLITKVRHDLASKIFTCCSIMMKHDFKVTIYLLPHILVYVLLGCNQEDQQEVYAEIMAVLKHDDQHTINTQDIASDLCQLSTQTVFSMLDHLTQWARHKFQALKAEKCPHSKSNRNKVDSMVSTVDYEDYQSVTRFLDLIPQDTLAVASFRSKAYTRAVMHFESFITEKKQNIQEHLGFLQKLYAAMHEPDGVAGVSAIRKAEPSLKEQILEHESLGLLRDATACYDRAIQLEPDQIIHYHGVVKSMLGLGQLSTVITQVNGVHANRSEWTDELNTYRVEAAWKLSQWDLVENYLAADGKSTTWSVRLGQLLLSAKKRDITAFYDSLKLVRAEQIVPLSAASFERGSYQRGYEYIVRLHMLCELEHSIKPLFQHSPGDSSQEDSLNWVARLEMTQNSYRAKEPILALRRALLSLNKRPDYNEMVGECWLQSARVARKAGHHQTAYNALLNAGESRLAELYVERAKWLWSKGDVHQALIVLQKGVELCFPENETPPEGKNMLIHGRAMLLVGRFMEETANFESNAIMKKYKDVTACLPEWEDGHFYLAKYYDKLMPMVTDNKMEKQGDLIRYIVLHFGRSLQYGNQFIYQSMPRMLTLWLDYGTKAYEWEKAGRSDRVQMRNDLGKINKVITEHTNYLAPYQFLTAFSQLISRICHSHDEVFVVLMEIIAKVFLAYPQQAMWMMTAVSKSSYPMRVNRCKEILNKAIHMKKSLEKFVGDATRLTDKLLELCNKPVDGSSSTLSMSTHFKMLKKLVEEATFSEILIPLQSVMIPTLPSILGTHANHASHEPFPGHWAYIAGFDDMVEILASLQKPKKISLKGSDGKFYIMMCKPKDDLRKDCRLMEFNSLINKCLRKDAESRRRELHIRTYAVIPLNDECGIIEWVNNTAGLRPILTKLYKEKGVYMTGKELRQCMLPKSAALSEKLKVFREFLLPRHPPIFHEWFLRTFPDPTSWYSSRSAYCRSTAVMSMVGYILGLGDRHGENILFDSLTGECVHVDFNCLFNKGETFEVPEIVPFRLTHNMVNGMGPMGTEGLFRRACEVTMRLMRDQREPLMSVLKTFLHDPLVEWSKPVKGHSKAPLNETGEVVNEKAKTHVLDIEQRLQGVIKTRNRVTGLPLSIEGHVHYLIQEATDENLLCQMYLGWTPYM
T1 sequence (Q8WXE1 whole entry partner): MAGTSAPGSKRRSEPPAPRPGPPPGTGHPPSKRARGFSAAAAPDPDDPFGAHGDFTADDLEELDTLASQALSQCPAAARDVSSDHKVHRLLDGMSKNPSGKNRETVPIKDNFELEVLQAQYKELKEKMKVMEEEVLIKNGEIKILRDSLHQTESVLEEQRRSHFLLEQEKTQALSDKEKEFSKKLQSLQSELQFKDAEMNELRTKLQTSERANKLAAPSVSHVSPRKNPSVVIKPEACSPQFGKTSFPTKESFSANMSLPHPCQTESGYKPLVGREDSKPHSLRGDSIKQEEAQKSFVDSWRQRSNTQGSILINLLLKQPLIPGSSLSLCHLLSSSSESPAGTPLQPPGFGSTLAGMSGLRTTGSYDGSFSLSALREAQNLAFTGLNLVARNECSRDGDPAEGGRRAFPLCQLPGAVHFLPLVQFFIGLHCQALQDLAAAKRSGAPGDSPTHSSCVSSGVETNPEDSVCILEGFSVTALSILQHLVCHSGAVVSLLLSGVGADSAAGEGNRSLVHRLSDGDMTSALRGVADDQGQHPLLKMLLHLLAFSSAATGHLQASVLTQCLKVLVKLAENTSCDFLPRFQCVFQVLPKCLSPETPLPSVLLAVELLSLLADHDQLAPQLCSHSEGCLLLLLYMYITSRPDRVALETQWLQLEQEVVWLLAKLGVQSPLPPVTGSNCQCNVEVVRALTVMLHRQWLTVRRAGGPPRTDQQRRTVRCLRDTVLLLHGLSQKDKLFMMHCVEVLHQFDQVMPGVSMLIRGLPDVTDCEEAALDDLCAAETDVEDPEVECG

As for `CCNc1cnc2[nH]ccc2c1-c1nc2c(c(C(C)(C)S(C)(=O)=O)n1)OC[C@@H]1COC[C@@H](C)N21` [A90, ethyl-{4-[(S)-1-(1-methanesulfonyl-1-methyl-ethyl)-5-(R)-methyl-5,6,8a,9-tetrahydro-8H-7,10-dioxa-2,4,4b-triaza-phenanthren-3-yl]-1H-pyrrolo[2,3-b]pyridin-5-yl}-amine], the IC50 in experiment [1] fell in the range of 1 to 10 nM; in experiment [2] it was 10 to 100 nM.

Regarding `C[C@@H]1COC[C@H]2COc3c(nc(-c4ccc(CN)cc4)nc3C(C)(C)S(C)(=O)=O)N21` [A46, 4-[(5R,8aS)-1-(1-methanesulfonyl-1-methyl-ethyl)-5-methyl-5,6,8a,9-tetrahydro-8H-7,10-dioxa-2,4,4b-triaza-phenanthren-3-yl]-benzylamine], the IC50 was below 1 nM in experiment [1] and 10 to 100 nM in experiment [2].

With `C[C@@H]1COC[C@H]2COc3c(nc(-n4c(NC5COC5)nc5ccccc54)nc3C(C)(C)S(C)(=O)=O)N21` [A93, {1-[(5R,8aS)-1-(1-methanesulfonyl-1-methyl-ethyl)-5-methyl-5,6,8a,9-tetrahydro-8H-7,10-dioxa-2,4,4b-triaza-phenanthren-3-yl]-1H-benzoimidazol-2-yl}-oxetan-3-yl-amine], the results for the IC50 in experiment [1] and in experiment [2] were 1 to 10 nM and 10 to 100 nM, respectively.

In the case of `CC(=O)Nc1nc2ccccc2n1-c1nc2c(c(C(C)(C)S(C)(=O)=O)n1)OC[C@@H]1COC[C@@H](C)N21` [A34, N-{1-[(10S,14R)-6-(2-Methanesulfonylpropan-2-yl)-14-methyl-8,12-dioxa-1,3,5-triazatricyclo[8.4.0.0^2,7]tetradeca-2,4,6-trien-4-yl]-1H-1,3-benzodiazol-2-yl}acetamide], the IC50 is below 1 nM in experiment [1] and 10 to 100 nM in experiment [2].

In the case of `C[C@@H]1COC[C@H]2COc3c(nc(-c4cncc5[nH]ccc45)nc3C(C)(C)S(C)(=O)=O)N21` [A39, (5R,8aS)-1-(1-methanesulfonyl-1-methyl-ethyl)-5-methyl-3-(1H-pyrrolo[2,3-c]pyridin-4-yl)-5,6,8a,9-tetrahydro-8H-7,10-dioxa-2,4,4b-triaza-phenanthrene], the IC50 in experiment [1] was below 1 nM; in experiment [2] it was 10 to 100 nM.

In the case of `C[C@@H]1COC[C@H]2COc3c(nc(-c4cccc(C5(N)COC5)c4)nc3C(C)(C)S(C)(=O)=O)N21` [A64, 3-{3-[(5R,8aS)-1-(1-methanesulfonyl-1-methyl-ethyl)-5-methyl-5,6,8a,9-tetrahydro-8H-7,10-dioxa-2,4,4b-triaza-phenanthren-3-yl]-phenyl}-oxetan-3-ylamine], the IC50 in experiment [1] was in the range of 500 to 30000 nM; in experiment [2], 1000 to 30000 nM.

For the compound `CNc1nc2ccccc2n1-c1nc2c(c(C(C)(C)S(C)(=O)=O)n1)OC[C@H]1COC[C@@H](C)N21` [A8, {1-[(5R,8aR)-1-(1-Methanesulfonyl-1-methyl-ethyl)-5-methyl-5,6,8a,9-tetrahydro-8H-7,10-dioxa-2,4,4b-triaza-phenanthren-3-yl]-1H-benzimidazol-2-yl}-methyl-amine], the values for the IC50 in experiment [1] and in experiment [2] were 1 to 10 nM and 100 to 1000 nM, respectively.

For `C[C@@H]1COC[C@H]2COc3c(nc(N(C)c4ccn[nH]4)nc3C(C)(C)S(C)(=O)=O)N21` [A74, [(5R,8aS)-1-(1-methanesulfonyl-1-methylethyl)-5-methyl-5,6,8a,9-tetrahydro-8H-7,10-dioxa-2,4,4b-triaza-phenanthren-3-yl]-methyl-(2H-pyrazol-3-yl)-amine], the concentration for half-maximal inhibition (IC50) in experiment [1] and in experiment [2] was 10 to 100 nM each time.

For `C[C@@H]1COC[C@H]2COc3c(nc(-c4ccc5nc(N)ncc5c4)nc3C(C)(C)S(C)(=O)=O)N21` [A78, 6-[(5R,8aS)-1-(1-methanesulfonyl-1-methyl-ethyl)-5-methyl-5,6,8a,9-tetrahydro-8H-7,10-dioxa-2,4,4b-triaza-phenanthren-3-yl]-quinazolin-2-ylamine], the IC50 in experiment [1] is 10 to 100 nM; in experiment [2], 100 to 1000 nM.
